Laboratory results reported in patent US20030166202A1, “P450 Monooxygenases of the cyp79 family” (priority 2000, published 2003).

T1: CYP79A2 (Arabidopsis thaliana, UniProt Q9FLC8)
T1 sequence (Q9FLC8 7-529 limits assumed): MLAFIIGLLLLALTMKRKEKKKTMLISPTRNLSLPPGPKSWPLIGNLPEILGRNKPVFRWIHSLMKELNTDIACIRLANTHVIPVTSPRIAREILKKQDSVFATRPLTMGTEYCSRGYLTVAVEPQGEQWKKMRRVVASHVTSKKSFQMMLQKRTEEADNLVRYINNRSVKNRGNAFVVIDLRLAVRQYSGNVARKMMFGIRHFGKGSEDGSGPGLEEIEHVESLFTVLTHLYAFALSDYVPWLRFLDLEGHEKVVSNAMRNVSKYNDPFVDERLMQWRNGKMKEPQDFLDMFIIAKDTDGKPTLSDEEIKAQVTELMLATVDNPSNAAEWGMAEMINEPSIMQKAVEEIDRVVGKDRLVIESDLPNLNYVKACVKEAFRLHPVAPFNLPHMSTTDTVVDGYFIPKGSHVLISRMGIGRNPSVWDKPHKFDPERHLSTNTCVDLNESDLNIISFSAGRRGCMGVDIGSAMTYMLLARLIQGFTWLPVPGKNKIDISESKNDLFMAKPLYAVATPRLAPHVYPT

T2: CYP79B2 (Arabidopsis thaliana, UniProt O81346)
T2 sequence (O81346 1-541): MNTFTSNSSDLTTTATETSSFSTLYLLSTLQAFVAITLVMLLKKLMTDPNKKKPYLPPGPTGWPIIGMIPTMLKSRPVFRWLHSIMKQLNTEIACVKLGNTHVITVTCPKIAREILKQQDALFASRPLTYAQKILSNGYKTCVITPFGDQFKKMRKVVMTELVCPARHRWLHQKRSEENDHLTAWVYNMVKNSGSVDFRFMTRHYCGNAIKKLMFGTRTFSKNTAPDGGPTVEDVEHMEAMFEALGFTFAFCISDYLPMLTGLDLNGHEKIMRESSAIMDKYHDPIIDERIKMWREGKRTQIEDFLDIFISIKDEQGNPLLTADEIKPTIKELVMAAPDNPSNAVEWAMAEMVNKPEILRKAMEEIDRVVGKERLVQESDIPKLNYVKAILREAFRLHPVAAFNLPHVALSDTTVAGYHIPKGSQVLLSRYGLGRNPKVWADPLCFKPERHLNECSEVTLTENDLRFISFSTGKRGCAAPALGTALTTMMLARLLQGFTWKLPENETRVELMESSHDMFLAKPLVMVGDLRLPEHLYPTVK

B1: CYP79B2 (Arabidopsis thaliana) (protein)
chain: T2 sequence (O81346 1-541)

Key:
CYP79A2 = target: T1, CYP79A2; experiment: CYP79A2 activity in E. coli spheroplasts reconstituted with NADPH:cytochrome P450 oxidoreductase
[1] = Non-enzymatic conversion of tryptophan under oxidative conditions; conditions: 100 mM H2O2, 1 mM MnCl2, 800 μM 2,4-dichlorophenol in 50 mM Tricine buffer, pH 8.0, no enzyme
CYP79F1 = CYP79F1 (Arabidopsis thaliana, UniProt Q949U1, M2A); conditions: E. coli C43(DE3) spheroplasts, GC-MS or TLC
Description: In a typical enzyme assay, 5 μl spheroplasts and 4 μl NADPH:cytochrome P450 reductase (equivalent to 0.04 units defined as 1 μmol cytochrome c/min) are incubated with substrate in buffer containing 30 mM KPi, pH 7.5, 3 mM NADPH, 3 mM reduced glutathione, 0.042% Tween 80, 1 mg ml^−1 L-α-dilauroylphosphatidylcholine in a total volume of 30 μl. Reaction mixtures containing spheroplasts of E. coli C43(DE3) transformed with empty vector are used as controls in all assays. 3.3 μM L-[U-^14C]phenylalanine (453 mCi/mmol; Pharmacia), 3.7 μM L-[U-^14C]tyrosine (449 mCi/mmol; Pharmacia), 0.1 mM L-[methyl-^14C]methionine (56 mCi/mmol; Pharmacia), and 24 μM L-[side chain-3-^14C]tryptophan (56.5 mCi/mmol; NEN) are tested as potential substrates. After incubation at 28° C. for 1 hour, half of the reaction mixture is analyzed by TLC on Silica Gel 60 F254 sheets (Merck) using toluene/ethyl acetate 5:1 (v/v) as eluent. Radiolabelled bands are visualized and quantified using a STORM 840 phosphoimager (Pharmacia). For GC-MS analysis, 450 μl reaction mixture containing 3.3 mM L-methionine (Sigma), 3.3 mM DL-dihomomethionine or 3.3 mM DL-trihomomethionine, respectively, are incubated for 4 hours at 25° C. and extracted with a total volume of 600 μl CHCl3. The organic phase is collected, evaporated, and the residue is dissolved in 15 μl CHCl3 and analyzed by GC-MS. […] An SGE column (BPX5, 25 m×0.25 mm, 0.25 μm film thickness) is used (heat pressure 100 kPa, splitless injection). The oven temperature program is as follows: 80° C. for 3 minutes, 80° C. to 180° C. at 5° C. min^−1, 180° C. to 300° C. at 20° C. min^−1, and 300° C. for 10 min. The ion source is run in EI mode (70 eV) at 200° C. […] DL-dihomomethionine, DL-trihomomethionine, 5-methylthiopentanaldoxime and 6-methylthiohexanaldoxime are synthesized as described (Dawson et al, J. Biol. Chem. 268: 27154-27159, 1993) and authenticated by NMR spectroscopy.

CYP79B2 = target: T2, CYP79B2; experiment: CYP79B2 activity in E. coli spheroplasts reconstituted with NADPH:cytochrome P450 reductase
Description: The activity of CYP79B2 is measured by reconstituting spheroplasts from E. coli expressing CYP79B2 with purified NADPH:cytochrome P450 reductase from Sorghum bicolor (L.) Moench. […] The reaction is incubated at 34° C. for 30 minutes, extracted two times with ethyl acetate and the ethyl acetate phase is analyzed by TLC using toluen:ethyl acetate 5:1 as eluent. Radiolabelled bands are visualized on a Storm 840 phosphorimager (Molecular Dynamics) and quantified with ImageQuant analysis software (Molecular Dynamics). Substrate specificity is investigated by substituting the ^14C-labelled tryptophan with ^14C-labelled tyrosine or phenylalanine. GC-MS is employed to verify the structure of the compound produced from tryptophan by recombinant CYP79B2. A 450 μl reaction mixture as described above containing 2 mM unlabelled tryptophan is incubated at 34° C. for 2 hours. The reaction mixture is extracted twice with 300 μl CHCl3 and lyophilized until dryness. GC-MS is performed with an HP5890 Series II gas chromatograph coupled to a Jeol JMS-AX505W mass spectrometer. Splitless injection on an SGE column (BPX5, 25 mm×0.25 mm, 0.25 μm film thickness) and a head pressure of 100 kPa are used.
Single colonies are grown overnight at 37° C. in LB medium containing 100 μg/ml ampicillin. 1 ml of the overnight culture is used to inoculate 75 ml TB medium containing 100 μg/ml ampicillin, 75 μg/ml δ-aminolevulinic acid, 1 mM thiamine and 1 mM IPTG. The TB cultures are grown for 44 hours at 125 rpm and 28° C.

[2] = substrate: N[C@@H](Cc1c[nH]c2ccccc12)C(=O)O; experiment: purified protein, by the assay type; conditions: other: native CYP79B2 construct; pH 7.9

Chain of CYP79F1 (Q949U1 whole entry M2A): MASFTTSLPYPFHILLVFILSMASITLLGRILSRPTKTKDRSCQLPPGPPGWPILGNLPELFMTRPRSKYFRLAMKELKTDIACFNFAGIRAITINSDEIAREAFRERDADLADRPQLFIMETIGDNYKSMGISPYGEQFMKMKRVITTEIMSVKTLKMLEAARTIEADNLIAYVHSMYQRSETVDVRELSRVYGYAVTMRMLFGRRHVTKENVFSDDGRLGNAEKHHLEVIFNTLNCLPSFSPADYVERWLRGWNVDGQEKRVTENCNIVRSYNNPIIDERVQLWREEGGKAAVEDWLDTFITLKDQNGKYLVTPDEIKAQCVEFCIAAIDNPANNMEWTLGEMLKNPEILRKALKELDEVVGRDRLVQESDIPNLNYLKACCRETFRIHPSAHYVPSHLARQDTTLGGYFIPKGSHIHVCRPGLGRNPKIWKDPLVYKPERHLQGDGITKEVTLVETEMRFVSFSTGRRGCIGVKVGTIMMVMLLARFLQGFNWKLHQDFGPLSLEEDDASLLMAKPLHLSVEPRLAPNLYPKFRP

Molecule	production of the respective aldoxime by CYP79A2 (CYP79A2)	conversion rate to compound co-migrating with IAOX relative to CYP79B2 [1]	formation of the corresponding aldoxime by CYP79F1 (CYP79F1)	Vmax (CYP79B2; native CYP79B2 construct)	oxime production by CYP79B2 (CYP79B2; radiolabelled amino acid, TLC)	Km [2]
N[C@@H](Cc1c[nH]c2ccccc12)C(=O)O [L-tryptophan]	does not result in production of detectable amounts of the respective aldoximes	approximately 0.7%	did not result in the formation of detectable amounts of the corresponding aldoximes	97.2 pmol/h/μl spheroplast	production of a strong band that co-migrates with authentic IAOX standard	
B1						21 µM
